From patent publication US20240018133A1, “MODULATORS OF THE INTEGRATED STRESS PATHWAY” (Calico Life Sciences LLC, priority 2019, published 2024)

Each molecule was assayed on ATF4 luciferase reporter (human full-length ATF4 5'-UTR fused to firefly luciferase) in HEK293T cells (assay: ATF4-Luc assay (in vitro model of VWMD): HEK293T cells carrying ATF4 luciferase reporter, tunicamycin-treated). Conditions: 1 μg/mL tunicamycin, 7 hours, One Glo luminescence.
Assay type: cell-based
Experimental: In order to test exemplary compounds of the invention in a cellular context, a stable VWMD cell line was first constructed. The ATF4 reporter was prepared by fusing the human full-length ATF4 5′-UTR (NCBI Accession No. BC022088.2) in front of the firefly luciferase (FLuc) coding sequence lacking the initiator methionine as described in Sidrauski et al (eLife 2013). The construct was used to produce recombinant retroviruses using standard methods and the resulting viral supernatant was used to transduce HEK293T cells, which were then subsequently selected with puromycin to generate a stable cell line.
HEK293T cells carrying the ATF4 luciferase reporter were plated on polylysine coated 384-well plates (Greiner Bio-one) at 30,000 cells per well. Cells were treated the next day with 1 μg/mL tunicamycin and 200 nM of a compound of Formula (I) for 7 hours. Luminescence was measured using One Glo (Promega) as specified by the manufacturer. Cells were maintained in DMEM with L-glutamine supplemented with 10% heat-inactivated FBS (Gibco) and Antibiotic-Antimycotic solution (Gibco).
Table 2 below summarizes the EC50 data obtained using the ATF4-Luc assay for exemplary compounds of the invention.

Structure (SMILES) | EC50 [nM]
O=C(COc1ccc(Cl)c(F)c1)NC12CC(NC(=O)C3CNc4cc(Cl)ccc4O3)(C1)C2 (single isomer, unassigned) [Compound 103] | < 10

Same assay, conditions: Homo sapiens, HEK-293T, 1 μg/mL tunicamycin, 7 hours, One Glo luminescence

Structure (SMILES) | EC50 [nM]
O=C(COc1ccc(Cl)c(F)c1)N[C@H]1C[C@H]2C[C@@H]1C[C@@H]2NC(=O)[C@H]1CC(=O)c2cc(Cl)ccc2O1 (mixture of isomers) [Compound 368, (2R)-6-chloro-N-{(1RS,2SR,4RS,5SR)-5-[2-(4-chloro-3-fluorophenoxy)acetamido]bicyclo[2.2.1]heptan-2-yl}-4-oxo-3,4-dihydro-2H-1-benzopyran-2-carboxamide] | < 10
O=C(COc1ccc(Cl)c(F)c1)NC12CC(NC(=O)[C@@H]3C[C@H](O)c4cc(Cl)ccc4O3)(C1)C2 (racemic) [Compound 190, rac-(2R,4R)-6-chloro-N-{3-[2-(4-chloro-3-fluorophenoxy)acetamido]bicyclo[1.1.1]pentan-1-yl}-4-hydroxy-3,4-dihydro-2H-1-benzopyran-2-carboxamide] | < 10
O=C(COc1ccc(Cl)c(F)c1)NC12CC(NC(=O)C3CC(N[C@H]4C[C@@H](O)C4)c4cc(Cl)ccc4O3)(C1)C2 (mixture of isomers) [Compound 209, 6-chloro-N-{3-[2-(4-chloro-3-fluorophenoxy)acetamido]bicyclo[1.1.1]pentan-1-yl}-4-{[(1s,3s)-3-hydroxycyclobutyl]amino}-3,4-dihydro-2H-1-benzopyran-2-carboxamide] | 50 to 250
O=C(NC12CC(NC(=O)[C@H]3C[C@@H](O)c4cc(Cl)ccc4O3)(C1)C2)c1cnc(C(F)F)cn1 (racemic) [Compound 218, N-(3-{[rac-(2R,4R)-6-chloro-4-hydroxy-3,4-dihydro-2H-1-benzopyran-2-carbonyl]amino}bicyclo[1.1.1]pentan-1-yl)-5-(difluoromethyl)pyrazine-2-carboxamide] | 10 to 50
O=C(COc1ccc(Cl)c(F)c1)NC12CC(NC(=O)[C@H]3C[C@@H](O)c4cc(Cl)c(F)cc4O3)(C1)C2 (racemic) [Compound 234, rac-(2R,4R)-6-chloro-N-{3-[2-(4-chloro-3-fluorophenoxy)acetamido]bicyclo[1.1.1]pentan-1-yl}-7-fluoro-4-hydroxy-3,4-dihydro-2H-1-benzopyran-2-carboxamide] | < 10
O=C(COc1ccc(Cl)c(F)c1)NC12CC(NC(=O)[C@H]3C[C@@H](O)c4cc(F)c(F)cc4O3)(C1)C2 (racemic) [Compound 249, rac-(2R,4R)—N-{3-[2-(4-chloro-3-fluorophenoxy)acetamido]bicyclo[1.1.1]pentan-1-yl}-6,7-difluoro-4-hydroxy-3,4-dihydro-2H-1-benzopyran-2-carboxamide] | < 10
C[C@]1(C(=O)NC23CC(NC(=O)COc4ccc(Cl)c(F)c4)(C2)C3)C[C@H](O)c2cc(Cl)ccc2O1 (racemic) [Compound 250, rac-(2R,4S)-6-chloro-N-{3-[2-(4-chloro-3-fluorophenoxy)acetamido]bicyclo[1.1.1]pentan-1-yl}-4-hydroxy-2-methyl-3,4-dihydro-2H-1-benzopyran-2-carboxamide] | 50 to 250
C[C@]1(C(=O)NC23CC(NC(=O)COc4ccc(Cl)c(F)c4)(C2)C3)C[C@@H](O)c2cc(Cl)ccc2O1 (racemic) [Compound 251, rac-(2R,4R)-6-chloro-N-{3-[2-(4-chloro-3-fluorophenoxy)acetamido]bicyclo[1.1.1]pentan-1-yl}-4-hydroxy-2-methyl-3,4-dihydro-2H-1-benzopyran-2-carboxamide] | 10 to 50
O=C(NC12CCC(NC(=O)[C@H]3C[C@@H](O)c4cc(Cl)ccc4O3)(C1)C2)c1ccc(OC(F)(F)F)cn1 (racemic) [Compound 293, N-(4-{[rac-(2R,4R)-6-chloro-4-hydroxy-3,4-dihydro-2H-1-benzopyran-2-carbonyl]amino}bicyclo[2.1.1]hexan-1-yl)-5-(trifluoromethoxy)pyridine-2-carboxamide] | 10 to 50
O=C(COc1ccc(Cl)c(F)c1)NC12CCC(NC(=O)[C@H]3C[C@@H](O)c4cc(Cl)ccc4O3)(C1)C2 (racemic) [Compound 296, rac-(2R,4R)-6-chloro-N-{4-[2-(4-chloro-3-fluorophenoxy)acetamido]bicyclo[2.1.1]hexan-1-yl}-4-hydroxy-3,4-dihydro-2H-1-benzopyran-2-carboxamide] | < 10
O=C(COc1ccc(Cl)c(F)c1)NC12CC(NC(=O)[C@H]3C[C@H](NCCO)c4cc(Cl)ccc4O3)(C1)C2 (racemic) [Compound 301, rac-(2R,4S)-6-chloro-N-{3-[2-(4-chloro-3-fluorophenoxy)acetamido]bicyclo[1.1.1]pentan-1-yl}-4-[(2-hydroxyethyl)amino]-3,4-dihydro-2H-1-benzopyran-2-carboxamide] | < 10
O=C(NC12CCC(NC(=O)[C@H]3C[C@@H](O)c4cc(Cl)ccc4O3)(CC1)CC2)c1cnc(C(F)F)cn1 (racemic) [Compound 302, N-(4-{[rac-(2R,4R)-6-chloro-4-hydroxy-3,4-dihydro-2H-1-benzopyran-2-carbonyl]amino}bicyclo[2.2.2]octan-1-yl)-5-(difluoromethyl)pyrazine-2-carboxamide] | 50 to 250
COc1ccc2c(n1)[C@H](O)C[C@H](C(=O)NC13CC(NC(=O)COc4ccc(Cl)c(F)c4)(C1)C3)O2 (racemic) [Compound 334, rac-(2R,4R)—N-{3-[2-(4-chloro-3-fluorophenoxy)acetamido]bicyclo[1.1.1]pentan-1-yl}-4-hydroxy-6-methoxy-3,4-dihydro-2H-pyrano[3,2-b]pyridine-2-carboxamide] | 50 to 250
CO[C@@H]1C[C@H](C(=O)NC23CC(NC(=O)COc4ccc(Cl)c(F)c4)(C2)C3)Oc2ccc(Cl)cc21 (racemic) [Compound 340, rac-(2R,4R)-6-chloro-N-{3-[2-(4-chloro-3-fluorophenoxy)acetamido]bicyclo[1.1.1]pentan-1-yl}-4-methoxy-3,4-dihydro-2H-1-benzopyran-2-carboxamide] | < 10
O=C(COc1ccc(Cl)c(F)c1)NC12CC(NC(=O)[C@H]3C[C@H](NC4(CO)CC4)c4cc(Cl)ccc4O3)(C1)C2 (racemic) [Compound 343, rac-(2R,4S)-6-chloro-N-{3-[2-(4-chloro-3-fluorophenoxy)acetamido]bicyclo[1.1.1]pentan-1-yl}-4-{[1-(hydroxymethyl)cyclopropyl]amino}-3,4-dihydro-2H-1-benzopyran-2-carboxamide] | 10 to 50
O=C(COc1ccc(Cl)c(F)c1)NC12CCC(NC(=O)[C@H]3C[C@@H](O)c4cc(Cl)ccc4O3)(CC1)NC2=O (racemic) [Compound 364, rac-(2R,4R)-6-chloro-N-{4-[2-(4-chloro-3-fluorophenoxy)acetamido]-3-oxo-2-azabicyclo[2.2.2]octan-1-yl}-4-hydroxy-3,4-dihydro-2H-1-benzopyran-2-carboxamide] | < 10
O=C(COc1ccc(Cl)c(F)c1)N[C@@H]1C[C@@H]2O[C@H]1C[C@H]2NC(=O)[C@@H]1C[C@@H](O)c2cc(Cl)ccc2O1 (racemic) [Compound 369, (2S,4R)-6-chloro-N-{(1RS,2SR,4RS,5SR)-5-[2-(4-chloro-3-fluorophenoxy)acetamido]-7-oxabicyclo[2.2.1]heptan-2-yl}-4-hydroxy-3,4-dihydro-2H-1-benzopyran-2-carboxamide] | 10 to 50
O=C(COc1ccc(Cl)c(F)c1)N[C@@H]1C[C@@H]2O[C@H]1C[C@H]2NC(=O)[C@H]1C[C@@H](O)c2cc(Cl)ccc2O1 (racemic) [Compound 370, (2R,4R)-6-chloro-N-{(1RS,2SR,4RS,5SR)-5-[2-(4-chloro-3-fluorophenoxy)acetamido]-7-oxabicyclo[2.2.1]heptan-2-yl}-4-hydroxy-3,4-dihydro-2H-1-benzopyran-2-carboxamide] | < 10
O=C(COc1ccc(Cl)c(F)c1)N[C@@H]1C[C@@H]2C[C@H]1C[C@H]2NC(=O)[C@H]1C[C@@H](O)c2cc(Cl)ccc2O1 (racemic) [Compound 371, (2R,4R)-6-chloro-N-{(1RS,2SR,4RS,5SR)-5-[2-(4-chloro-3-fluorophenoxy)acetamido]bicyclo[2.2.1]heptan-2-yl}-4-hydroxy-3,4-dihydro-2H-1-benzopyran-2-carboxamide] | < 10
O=C(COc1ccc(Cl)c(F)c1)N[C@@H]1C[C@@H]2O[C@H]1C[C@H]2NC(=O)[C@@H]1C[C@H](O)c2cc(Cl)ccc2O1 (racemic) [Compound 372, (2S,4S)-6-chloro-N-{(1RS,2SR,4RS,5SR)-5-[2-(4-chloro-3-fluorophenoxy)acetamido]-7-oxabicyclo[2.2.1]heptan-2-yl}-4-hydroxy-3,4-dihydro-2H-1-benzopyran-2-carboxamide] | 10 to 50
O=C(COc1ccc(Cl)c(F)c1)NC12CC(NC(=O)C3CNc4cc(Cl)ccc4O3)(C1)C2 (single isomer, unassigned) [Compound 102] | < 10
CN1CC(C(=O)NC23CC(NC(=O)COc4ccc(Cl)c(F)c4)(C2)C3)Oc2ccc(Cl)cc21 (single isomer, unassigned) [Compound 104] | < 10
O=C(COc1ccc(Cl)c(F)c1)NC12CC(NC(=O)[C@@H]3C[C@H](O)c4cc(F)c(Cl)cc4O3)(C1)C2 (single isomer, unassigned) [Compound 205] | < 10
O=C(COc1ccc(Cl)c(F)c1)NC12CC(NC(=O)[C@H]3C[C@@H](O)c4cc(F)c(Cl)cc4O3)(C1)C2 (single isomer, unassigned) [Compound 206] | < 10
